In PubChem BioAssay (NCI):
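GI50 = concentration required for 50% inhibition of growth. Definition used: TGI = concentration required for complete inhibition of growth.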

What was measured:
Test in all cases: NCI tumour cell line growth inhibition, 384-well format
786-0 renal = tested on: 786-0 renal
A498 renal = tested on: A498 renal
A549 NSCLC = tested on: A549 NSCLC
ACHN renal = tested on: ACHN renal
BT-549 breast = tested on: BT-549 breast
CAKI-1 renal = tested on: CAKI-1 renal
CCRF-CEM leukemia = tested on: CCRF-CEM leukemia
DU-145 prostate = tested on: DU-145 prostate
EKVX NSCLC = tested on: EKVX NSCLC
HCT-116 colon = tested on: HCT-116 colon
HCT-15 colon = tested on: HCT-15 colon
HL-60(TB) leukemia = tested on: HL-60(TB) leukemia
HOP-62 NSCLC = tested on: HOP-62 NSCLC
HOP-92 NSCLC = tested on: HOP-92 NSCLC
HS 578T breast = tested on: HS 578T breast
HT29 colon = tested on: HT29 colon
IGROV1 ovarian = tested on: IGROV1 ovarian
K-562 leukemia = tested on: K-562 leukemia
KM12 colon = tested on: KM12 colon
M14 melanoma = tested on: M14 melanoma
MALME-3M melanoma = tested on: MALME-3M melanoma
MCF7 breast = tested on: MCF7 breast
MDA-MB-231 breast = tested on: MDA-MB-231 breast
MDA-MB-435 melanoma = tested on: MDA-MB-435 melanoma
MDA-MB-468 breast = tested on: MDA-MB-468 breast
NCI-H226 lung = tested on: NCI-H226 lung
NCI-H23 lung = tested on: NCI-H23 lung
NCI-H322M lung = tested on: NCI-H322M lung
NCI-H522 lung = tested on: NCI-H522 lung
NCI/ADR-RES ovarian = tested on: NCI/ADR-RES ovarian
OVCAR-3 ovarian = tested on: OVCAR-3 ovarian
OVCAR-4 ovarian = tested on: OVCAR-4 ovarian
OVCAR-5 ovarian = tested on: OVCAR-5 ovarian
OVCAR-8 ovarian = tested on: OVCAR-8 ovarian
PC-3 prostate = tested on: PC-3 prostate
RPMI-8226 leukemia = tested on: RPMI-8226 leukemia
SF-268 CNS = tested on: SF-268 CNS
SF-295 CNS = tested on: SF-295 CNS
SF-539 CNS = tested on: SF-539 CNS
SK-MEL-2 melanoma = tested on: SK-MEL-2 melanoma
SK-MEL-28 melanoma = tested on: SK-MEL-28 melanoma
SK-OV-3 ovarian = tested on: SK-OV-3 ovarian
SN12C renal = tested on: SN12C renal
SNB-19 CNS = tested on: SNB-19 CNS
SNB-75 CNS = tested on: SNB-75 CNS
SW-620 colon = tested on: SW-620 colon
T-47D breast = tested on: T-47D breast
TK-10 renal = tested on: TK-10 renal
U251 glioblastoma = tested on: U251 glioblastoma
UACC-257 melanoma = tested on: UACC-257 melanoma
UACC-62 melanoma = tested on: UACC-62 melanoma
UO-31 renal = tested on: UO-31 renal

**Q.** What does the source list for `CC[C@]1(O)C[C@H]2CN(CCc3c([nH]c4ccccc34)[C@@](C(=O)OC)(c3cc4c(cc3OC)N(C)[C@H]3[C@@](O)(C(=O)OC)[C@H](OC(C)=O)[C@]5(CC)C=CCN6CC[C@]43[C@@H]65)C2)C1`?
**A.** GI50 ([…]-0 renal): < 19.1 nM; TGI (786-0 renal): 4130 nM; GI50 (A498 renal): < 19.9 nM; GI50 (A549 NSCLC): < 21.2 nM; TGI (A549 NSCLC): 14100 nM; TGI (ACHN renal): 6080 nM; GI50 (BT-549 breast): < 16.2 nM; TGI (BT-549 breast): 42.6 nM; GI50 (CAKI-1 renal): < 22.6 nM; TGI (CAKI-1 renal): 3880 nM; GI50 (CCRF-CEM leukemia): < 13.6 nM; TGI (CCRF-CEM leukemia): < 18.2 nM; GI50 (DU-145 prostate): < 18.7 nM; GI50 (EKVX NSCLC): 30.4 nM; TGI (EKVX NSCLC): 11900 nM; GI50 (HCT-116 colon): < 17.8 nM; TGI (HCT-116 colon): 595 nM; GI50 (HCT-15 colon): 52 nM; TGI (HCT-15 colon): 10400 nM; TGI (HL-60(TB) leukemia): < 11.1 nM; GI50 (HOP-62 NSCLC): < 17.5 nM; TGI (HOP-62 NSCLC): 1250 nM; GI50 (HOP-92 NSCLC): 66.4 nM; TGI (HOP-92 NSCLC): 8390 nM; GI50 (HS 578T breast): < 13.6 nM; TGI (HS 578T breast): < 20.8 nM; GI50 (HT29 colon): 31.5 nM; TGI (HT29 colon): 10700 nM; GI50 (IGROV1 ovarian): < 39 nM; TGI (IGROV1 ovarian): 4400 nM; TGI (K-562 leukemia): < 18.8 nM; GI50 (KM12 colon): 33.1 nM; TGI (KM12 colon): 13800 nM; GI50 (M14 melanoma): 22.7 nM; TGI (M14 melanoma): 13200 nM; GI50 (MALME-3M melanoma): < 23.8 nM; TGI (MALME-3M melanoma): 16400 nM; GI50 (MCF7 breast): < 19.1 nM; TGI (MCF7 breast): 3170 nM; GI50 (MDA-MB-231 breast): < 20.5 nM; TGI (MDA-MB-231 breast): 8400 nM; GI50 (MDA-MB-435 melanoma): < 13.7 nM; TGI (MDA-MB-435 melanoma): < 21.1 nM; GI50 (MDA-MB-468 breast): < 14.9 nM; TGI (MDA-MB-468 breast): < 20.7 nM; GI50 (NCI-H226 lung): < 26.3 nM; TGI (NCI-H226 lung): 13000 nM; GI50 (NCI-H23 lung): 25.8 nM; TGI (NCI-H23 lung): 79.6 nM; GI50 (NCI-H322M lung): < 24.5 nM; TGI (NCI-H322M lung): 20300 nM; GI50 (NCI-H522 lung): < 14.1 nM; TGI (NCI-H522 lung): < 19.6 nM; GI50 (NCI/ADR-RES ovarian): 454 nM; TGI (NCI/ADR-RES ovarian): 1020 nM; GI50 (OVCAR-3 ovarian): < 15.1 nM; TGI (OVCAR-3 ovarian): < 26.5 nM; GI50 (OVCAR-4 ovarian): 357 nM; TGI (OVCAR-4 ovarian): 14700 nM; GI50 (OVCAR-5 ovarian): < 21.1 nM; TGI (OVCAR-5 ovarian): 16800 nM; GI50 (OVCAR-8 ovarian): < 16.4 nM; TGI (OVCAR-8 ovarian): < 28.4 nM; GI50 (PC-3 prostate): < 19.5 nM; TGI (PC-3 prostate): 11800 nM; GI50 (RPMI-8226 leukemia): < 11.6 nM; TGI (RPMI-8226 leukemia): < 16.8 nM; GI50 (SF-268 CNS): < 20.3 nM; TGI (SF-268 CNS): 4860 nM; GI50 (SF-295 CNS): < 14.8 nM; TGI (SF-295 CNS): < 22.6 nM; GI50 (SF-539 CNS): < 14.3 nM; TGI (SF-539 CNS): < 21.5 nM; GI50 (SK-MEL-2 melanoma): < 16.2 nM; TGI (SK-MEL-2 melanoma): < 25.4 nM; GI50 (SK-MEL-28 melanoma): < 39 nM; TGI (SK-MEL-28 melanoma): 14600 nM; GI50 (SK-OV-3 ovarian): < 20.6 nM; TGI (SK-OV-3 ovarian): 904 nM; GI50 (SN12C renal): < 25 nM; TGI (SN12C renal): 14700 nM; GI50 (SNB-19 CNS): < 21.6 nM; TGI (SNB-19 CNS): 2300 nM; GI50 (SNB-75 CNS): < 20.6 nM; GI50 (SW-620 colon): < 20.2 nM; TGI (SW-620 colon): 16300 nM; GI50 (T-47D breast): 544 nM; TGI (T-47D breast): 19900 nM; GI50 (TK-10 renal): < 26.9 nM; TGI (TK-10 renal): 14600 nM; GI50 (U251 glioblastoma): < 17.7 nM; GI50 (UACC-257 melanoma): 412 nM; TGI (UACC-257 melanoma): 10600 nM; GI50 (UACC-62 melanoma): < 17.1 nM; GI50 (UO-31 renal): 157 nM; TGI (UO-31 renal): 7780 nM
